{
  "source": "paper PMC6150245",
  "about": "(Molecules : A Journal of Synthetic Chemistry and Natural …, 2017)",
  "key": {"[1]": {"test_system": "S. epidermidis ATCC35984", "format": "cell-based, Staphylococcus epidermidis", "protocol": "(§1) After confirming antibacterial activity, the peptides were tested against gram-positive and gram-negative multidrug-resistant bacteria, including strains of clinical origin. The peptides, p-BthTX-I, des-Lys^12/(p-BthTX-I)2, and Lys^13-(p-BthTX-I)2 were serially diluted (512–1 μM) in cation-adjusted BBL MH II broth (CAMHB; Becton, Dickson and Co., Sparks, MD, USA) as described by CLSI. Bacteria at 5.0 × 10^5 CFU/mL were added to the media and incubated for 24 h at 37 °C. […] Assays were performed in duplicates, and sterile broth was used as the negative control. To determine the minimal bactericidal concentration (MBC), 100 µL from each well of the MIC assay plates that inhibited bacterial growth were sub-cultured onto MH agar (MHA) plates. […] If the ratio of MBC/MIC was >4, the activity of the peptide was considered bacteriostatic, as described previously."}, "[2]": {"test_system": "S. aureus ATCC25923", "format": "cell-based, Staphylococcus aureus", "settings": "S. aureus ATCC25923, CAMHB, 24 h, 37 °C, duplicate", "protocol": "as §1"}, "[3]": {"test_system": "S. aureus SA16", "format": "cell-based, Staphylococcus aureus", "settings": "S. aureus SA16 (MRSA)", "protocol": "as §1"}, "[4]": {"test_system": "S. aureus SA33", "format": "cell-based, Staphylococcus aureus", "settings": "S. aureus SA33, sub-culture on MH agar, 99.9% death", "protocol": "as §1"}, "[5]": {"test_system": "S. aureus SA88", "format": "cell-based, Staphylococcus aureus", "protocol": "as §1"}, "[6]": {"test_system": "S. aureus SA90", "format": "cell-based, Staphylococcus aureus", "settings": "S. aureus SA90, sub-culture on MH agar, 99.9% death", "protocol": "as §1"}, "[7]": {"test_system": "E. faecium HSJRP8", "format": "cell-based, Enterococcus faecium", "protocol": "as §1"}, "[8]": {"test_system": "E. faecium VRE16", "format": "cell-based, Enterococcus faecium", "protocol": "as §1"}, "[9]": {"test_system": "K. pneumoniae ATCC700603", "format": "cell-based, Klebsiella pneumoniae", "settings": "K. pneumoniae ATCC700603 (SHV-18), CAMHB, 24 h, 37 °C", "protocol": "as §1"}, "[10]": {"test_system": "K. pneumoniae ATCCBAA1705", "format": "cell-based, Klebsiella pneumoniae", "settings": "K. pneumoniae ATCCBAA1705 (KPC), CAMHB, 24 h, 37 °C, duplicate", "protocol": "as §1"}, "[11]": {"test_system": "K. pneumoniae NDM-1", "format": "cell-based, Klebsiella pneumoniae", "settings": "K. pneumoniae NDM-1, sub-culture on MH agar, 99.9% death", "protocol": "as §1"}, "[12]": {"test_system": "E. coli ATCC35218", "format": "cell-based, Escherichia coli", "protocol": "as §1"}, "[13]": {"test_system": "E. coli CA4", "format": "cell-based, Escherichia coli", "settings": "E. coli CA4 (commensal), CAMHB, 24 h, 37 °C, duplicate", "protocol": "as §1"}, "[14]": {"assay": "Serum stability assay", "format": "in vitro ADME", "settings": "25% human male serum, 37 °C, peptide 100 µM, analytical HPLC (C18) and LC/MS, duplicate", "protocol": "Crude peptides were purified by semi-preparative HPLC on a Shimadzu system (Tokyo, Japan) using a C18 reversed phase column (10 × 250 mm, Phenomenex, Torrance, CA, USA). Solvent A contained 0.045% trifluoroacetic acid (TFA) in water. Elution was achieved using a linear gradient (5–35%) of solvent B (0.036% TFA in acetonitrile) for 120 min at 5 mL/min. The purity of the peptides was determined by analytical HPLC on a Shimadzu system using a C18 column (4.6 × 150 mm, Phenomenex, Torrance, CA, USA) with a linear gradient of solvent B (5–95%) for 30 min at 1 mL/min. Liquid chromatography-mass spectrometry (LC/MS) was performed using a C18 column (2.0 × 30 mm, Shimadzu) attached to analytical HPLC and an amaZon ion trap mass spectrometer (Bruker Daltonics) using ESI. Peptides were eluted using a linear gradient of solvent B (5–95%) for 15 min at 0.2 mL/min.\nPeptide stability assays were performed in diluted serum as previously described with minor modifications. First, 2 mL of 25% human male serum was centrifuged at 3000× g for 10 min; the supernatant was collected and incubated for 15 min at 37 °C. Next, peptides were added to the serum to a final concentration of 100 µM. Then, 200 µL of samples were collected at different time points during the assays, which were performed in duplicate. Analyses were performed by LC/MS and analytical HPLC, as described above."}, "[15]": {"assay": "25% human male serum", "settings": "37 °C, up to 30 h"}, "[16]": {"test_system": "E. coli ATCC25922", "assay": "MIC, microdilution in MH broth (initial screening)", "format": "cell-based, Escherichia coli", "settings": "24 h, 37 °C, resazurin, triplicate", "protocol": "(§2) The minimum inhibitory concentrations (MIC) were determined following the Clinical and Laboratory Standards Institute (CLSI) recommendations. Antibacterial and antifungal activity tests were performed using the microdilution method. For initial screening, peptides were tested against C. albicans ATCC18804, E. coli ATCC25922, and S. aureus ATCC25923. Briefly, bacterial cells in MH broth (80 μL aliquots containing 1.5 × 10^7 CFU) were incubated with synthetic peptides (serial dilution from 512 to 1 μM) dissolved in Milli-Q water. After incubation for 24 h at 37 °C, the microtiter plates were analyzed visually by addition of resazurin. For the antifungal assays, the culture medium was RPMI 1640 buffered with L-glutamine (pH 7.2), 0.165 M morpholinepropanesulfonic acid (MOPS), and 2% glucose. Cell suspensions (final concentration of 1 × 10^3–2.5 × 10^3 CFU/mL) were inoculated on a microdilution plate previously prepared with serially diluted synthetic peptides (128–1 μM). The plates were incubated for 48 h at 37 °C. Each assay was performed in triplicates. Additionally, amphotericin B and fluconazole were used as the control drugs. MIC was defined as the lowest concentration of peptide at which no growth was detected."}, "[17]": {"test_system": "S. aureus ATCC25923", "assay": "MIC, microdilution in MH broth (initial screening)", "format": "cell-based, Staphylococcus aureus", "settings": "24 h, 37 °C, resazurin, triplicate", "protocol": "as §2"}, "[18]": {"test_system": "C. albicans ATCC18804", "assay": "Antifungal MIC, microdilution in RPMI 1640", "format": "cell-based, Candida albicans", "settings": "C. albicans ATCC18804, RPMI 1640, 48 h, 37 °C, peptides 128-1 µM, triplicate", "protocol": "as §2"}, "[19]": {"test_system": "human red blood cells", "assay": "Hemolysis assay", "format": "cell-based", "settings": "1% (v/v) human erythrocytes in Tris-saline pH 7.4, 1 h, 37 °C, absorbance 405 nm, triplicate", "protocol": "Peptide hemolysis assays were performed as previously described by Castro et al.. Briefly, freshly prepared human red blood cells (RBCs) were washed three times with 0.01 M Tris-HCl (pH 7.4) containing 0.15 M NaCl (Tris-saline). A suspension of 1% (v/v) erythrocytes was made with packed RBCs resuspended in Tris-saline. Peptides were dissolved in Tris-saline at an initial concentration of […] and serially diluted in the same buffer to determine the concentration that triggered 50% hemolysis (HC50). As the positive control (100% lysis), 1% (v/v) Triton X-100 solution was used. After 1 h of incubation at 37 °C, the samples were centrifuged at 3000× g for 5 min. Then, 100 µL aliquots of the supernatant were transferred to 96-well microplates, and the absorbance was determined at 405 nm. The assay was performed in triplicates."}},
  "note": "“Also recorded” adds a separate entry of the source. Read-outs that look alike come from different tables or passages of the source.",
  "data": [
    {"compound": "CC(C)C[C@H](NC(=O)[C@H](Cc1c[nH]cn1)NC(=O)[C@H](Cc1ccc(O)cc1)NC(=O)[C@H](CCCNC(=N)N)NC(=O)[C@H](Cc1ccc(O)cc1)NC(=O)[C@H](CCCCN)NC(=O)[C@@H](N)CCCCN)C(=O)N[C@@H](CCCCN)C(=O)N1CCC[C@H]1C(=O)N[C@@H](Cc1ccccc1)C(=O)N[C@@H](CS)C(=O)N[C@@H](CCCCN)C(=O)N[C@@H](CCCCN)C(=O)O", "note": "[p-BthTX-I]", "values": [
      {"measurement": "MIC", "setting": "[1]; S. epidermidis ATCC35984, CAMHB, 24 h, 37 °C, duplicate", "result": 128, "unit": "µM"},
      {"measurement": "MBC", "setting": "[1]; S. epidermidis ATCC35984, sub-culture on MH agar, 99.9% death", "result": 512, "unit": "µM"},
      {"measurement": "MIC", "setting": "[2]", "result": ">512", "unit": "µM"},
      {"measurement": "MIC", "setting": "[3]; CAMHB, 24 h, 37 °C", "result": 512, "unit": "µM"},
      {"measurement": "MBC", "setting": "[3]; sub-culture on MH agar, 99.9% death", "result": 512, "unit": "µM"},
      {"measurement": "MBC", "setting": "[4]", "result": ">512", "unit": "µM"},
      {"measurement": "MIC", "setting": "[5]; S. aureus SA88 (MRSA, daptomycin heteroresistant), CAMHB, 24 h, 37 °C, duplicate", "result": 512, "unit": "µM"},
      {"measurement": "MBC", "setting": "[5]; S. aureus SA88, sub-culture on MH agar, 99.9% death", "result": ">512", "unit": "µM"},
      {"measurement": "MBC", "setting": "[6]", "result": 512, "unit": "µM"},
      {"measurement": "MIC", "setting": "[7]; E. faecium HSJRP8 (daptomycin resistant), CAMHB, 24 h, 37 °C, duplicate", "result": 32, "unit": "µM"},
      {"measurement": "MBC", "setting": "[7]; E. faecium HSJRP8, sub-culture on MH agar, 99.9% death", "result": ">512", "unit": "µM"},
      {"measurement": "MIC", "setting": "[8]; E. faecium VRE16 (vancomycin resistant), CAMHB, 24 h, 37 °C, duplicate", "result": 128, "unit": "µM"},
      {"measurement": "MBC", "setting": "[8]; E. faecium VRE16, sub-culture on MH agar, 99.9% death", "result": ">512", "unit": "µM"},
      {"measurement": "MIC", "setting": "[9]", "result": ">512", "unit": "µM"},
      {"measurement": "MIC", "setting": "[10]", "result": ">512", "unit": "µM"},
      {"measurement": "MBC", "setting": "[11]", "result": ">512", "unit": "µM"},
      {"measurement": "MIC", "setting": "[12]; E. coli ATCC35218, CAMHB, 24 h, 37 °C, duplicate", "result": 512, "unit": "µM"},
      {"measurement": "MBC", "setting": "[12]; E. coli ATCC35218, sub-culture on MH agar, 99.9% death", "result": ">512", "unit": "µM"},
      {"measurement": "MIC", "setting": "[13]", "result": ">512", "unit": "µM"},
      {"measurement": "Incubation time after which the peptide was completely degraded in human serum", "setting": "[14]", "result": 30, "unit": "min"}
    ]},
    {"compound": "KKYRYHLKPFCKK [(p-BthTX-I)2]", "values": [
      {"measurement": "cleaved bond", "setting": "[15]", "result": "Lys12-Lys13, major, 30 min; also recorded: Cys11-Lys12, major, 30 min"},
      {"measurement": "fragment found", "setting": "[15]", "result": "(p-BthTX-I)2 minus one Lys residue, first_seen, 5 min; also recorded: (p-BthTX-I)2 minus two Lys residues, major, 5 min; also recorded: (p-BthTX-I)2 minus three Lys residues, 20 min"}
    ]},
    {"compound": "CC(C)C[C@H](NC(=O)[C@H](Cc1c[nH]cn1)NC(=O)[C@H](Cc1ccc(O)cc1)NC(=O)[C@H](CCCNC(=N)N)NC(=O)[C@H](Cc1ccc(O)cc1)NC(=O)[C@H](CCCCN)NC(=O)[C@@H](N)CCCCN)C(=O)N[C@@H](CCCCN)C(=O)N1CCC[C@H]1C(=O)N[C@@H](Cc1ccccc1)C(=O)N[C@@H](CSSC[C@H](NC(=O)[C@H](Cc1ccccc1)NC(=O)[C@@H]1CCCN1C(=O)[C@H](CCCCN)NC(=O)[C@H](CC(C)C)NC(=O)[C@H](Cc1c[nH]cn1)NC(=O)[C@H](Cc1ccc(O)cc1)NC(=O)[C@H](CCCNC(=N)N)NC(=O)[C@H](Cc1ccc(O)cc1)NC(=O)[C@H](CCCCN)NC(=O)[C@@H](N)CCCCN)C(=O)N[C@@H](CCCCN)C(=O)O)C(=O)N[C@@H](CCCCN)C(=O)O", "note": "[des-Lys^13-(p-BthTX-I)2]", "values": [
      {"measurement": "MIC", "setting": "[16]", "result": 32, "unit": "µM"},
      {"measurement": "MIC", "setting": "[17]", "result": 128, "unit": "µM"},
      {"measurement": "MIC", "setting": "[18]", "result": ">128", "unit": "µM"},
      {"measurement": "HC50 (peptide concentration that produced 50% hemolysis)", "setting": "[19]", "result": ">128", "unit": "µM"}
    ]}
  ]
}
